Experiments:
Experiment in all cases: in vitro antibacterial evaluation, MIC by broth dilution
Type in all cases: cell-based
[1] = test system: Streptococcus sp.; conditions: broth dilution, 18 hours at 35° C.
How it was run: (§1)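 Broth dilution per NCCLS M7-A2 in Mueller-Hinton II medium, inoculum 5×10^5 CFU/mL, antibiotic range 64-0.06 μg/mL. MIC taken as lowest concentration inhibiting growth; Gram-positive panel includes recent clinical isolates resistant to methicillin, penicillin and/or vancomycin.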

[2] = test system: Enterococcus sp.; conditions: broth dilution, 18 hours at 35° C.
How it was run: as §1

[3] = test system: Staphylococcus sp.; conditions: broth dilution, 18 hours at 35° C.; for MIC Staphylococcus aureus (ATCC 29213): strain ATCC 29213; for MIC Staphylococcus aureus (GC 1131): strain GC 1131; for MIC Staphylococcus aureus (GC 3051): strain GC 3051; for MIC Staphylococcus aureus (GC 3053): strain GC 3053; for MIC Staphylococcus aureus (GC 4541): strain GC 4541; for MIC Staphylococcus aureus (GC 4542): strain GC 4542; for MIC Staphylococcus aureus-SMITH (GC 4543): strain GC 4543; for MIC Staphylococcus aureus (GC 4544): strain GC 4544; for MIC Staphylococcus aureus (GC 4545): strain GC 4545; for MIC Staphylococcus haemolyticus (GC 4546): strain GC 4546; for MIC Coagulase Negative Staphylococcus (GC 4547): strain GC 4547; for MIC Coagulase Negative Staphylococcus (GC 4548): strain GC 4548; for MIC Coagulase Negative Staphylococcus (GC 4549): strain GC 4549; for MIC Coagulase Negative Staphylococcus (GC 4551): strain GC 4551; for MIC Coagulase Negative Staphylococcus (GC 6257): strain GC 6257
How it was run: as §1

[4] = test system: Escherichia coli; conditions: 18 hours at 35° C.
How it was run: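 Broth dilution MIC per NCCLS M7-A2 in Mueller-Hinton II medium, inoculum 5×10^5 CFU/mL, antibiotic range 64-0.06 μg/mL. MIC taken as lowest concentration inhibiting growth.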

CC(c1ccccc1)C1NC(=O)CNC(=O)C(CO)NC(=O)C(C(O)C2CN(Cc3ccccc3)C(=NCc3ccccc3)N2C2OC(CO)C(O)C(O)C2O)NC(=O)C(C(O)C2CN(Cc3ccccc3)C(=NCc3ccccc3)N2Cc2ccccc2)NC(=O)C(Cc2ccc(OC3OC(CO)C(OC4OC(CO)C(O)C(O)C4O)C(O)C3O)cc2)NC1=O (stereo not drawn) [Example 62, Cyclo[glycyl-β-methylphenylalanyl-O-(4-O-hexopyranosylhexopyranosyl)tyrosyl-3-[1,3-dibenzyl-2-(benzylimino)imidazolidin-4-yl]seryl-3-[1-benzyl-2-(benzylimino)-3-hexopyranosylimidazolidin-4-yl]serylseryl]]
4 µg/mL: MIC Escherichia coli (GC 4560) [4]
64 µg/mL: MIC Streptococcus pneumoniae (GC 1894) [1] | MIC Streptococcus pneumoniae (GC 1894) ([1]; strain GC 1894) | MIC Enterococcus faecium (GC 4557) ([2]; Enterococcus faecium (GC 4557)) | MIC Enterococcus faecium (GC 4557) [2]
>128 µg/mL: MIC Streptococcus agalactiae (GC 4564) [1] | MIC Streptococcus pyogenes (GC 4563) [1] | MIC Streptococcus pyogenes (GC 4563) ([1]; strain GC 4563) | MIC Streptococcus agalactiae (GC 4564) ([1]; strain GC 4564) | MIC Enterococcus faecalis (ATCC 29212) ([2]; Enterococcus faecalis (ATCC 29212)) | MIC Enterococcus faecalis (GC 4552) ([2]; Enterococcus faecalis (GC 4552)) | MIC Enterococcus faecalis (GC 4554) ([2]; Enterococcus faecalis (GC 4554)) | MIC Enterococcus faecalis (GC 6189) ([2]; Enterococcus faecalis (GC 6189)) | MIC Enterococcus faecium (GC 2243) ([2]; Enterococcus faecium (GC 2243)) | MIC Enterococcus faecium (GC 4556) ([2]; Enterococcus faecium (GC 4556)) | MIC Enterococcus faecalis (ATCC 29212) [2] | MIC Enterococcus faecalis (GC 2242) [2] | MIC Enterococcus faecalis (GC 2691) [2] | MIC Enterococcus faecalis (GC 3059) [2] | MIC Enterococcus faecalis (GC 4552) [2] | MIC Enterococcus faecalis (GC 4554) [2] | MIC Enterococcus faecalis (GC 6189) [2] | MIC Enterococcus faecium (GC 2243) [2] | MIC Enterococcus faecium (GC 4556) [2] | MIC Enterococcus faecalis (GC 2242) ([2]; strain GC 2242) | MIC Enterococcus faecalis (GC 2691) ([2]; strain GC 2691) | MIC Enterococcus faecalis (GC 3059) ([2]; strain GC 3059) | MIC Staphylococcus aureus (ATCC 29213) [3] | MIC Staphylococcus aureus (GC 1131) [3] | MIC Staphylococcus aureus (GC 3051) [3] | MIC Staphylococcus aureus (GC 3053) [3] | MIC Staphylococcus aureus (GC 4541) [3] | MIC Staphylococcus aureus (GC 4542) [3] | MIC Staphylococcus aureus-SMITH (GC 4543) [3] | MIC Staphylococcus aureus (GC 4544) [3] | MIC Staphylococcus aureus (GC 4545) [3] | MIC Staphylococcus haemolyticus (GC 4546) [3] | MIC Coagulase Negative Staphylococcus (GC 4547) [3] | MIC Coagulase Negative Staphylococcus (GC 4548) [3] | MIC Coagulase Negative Staphylococcus (GC 4549) [3] | MIC Coagulase Negative Staphylococcus (GC 4551) [3] | MIC Coagulase Negative Staphylococcus (GC 6257) [3] | MIC Escherichia coli (ATCC 25922) [4] | MIC Escherichia coli (GC 4559) [4]
128 µg/mL: MIC Streptococcus pneumoniae (ATCC 6301) [1] | MIC Streptococcus pneumoniae (GC 4565) [1] | MIC Streptococcus pneumoniae (ATCC 6301) ([1]; strain ATCC 6301) | MIC Streptococcus pneumoniae (GC 4565) ([1]; strain GC 4565) | MIC Enterococcus avium (GC 4558) ([2]; Enterococcus avium (GC 4558)) | MIC Enterococcus faecalis (GC 4553) ([2]; Enterococcus faecalis (GC 4553)) | MIC Enterococcus avium (GC 4558) [2] | MIC Enterococcus faecalis (GC 4553) [2]

CC(c1ccccc1)C1NC(=O)CNC(=O)C(CO)NC(=O)C(C(O)C2CNC(=N)N2C2OC(CO)C(O)C(O)C2O)NC(=O)C(C(O)C2CNC(=N)N2)NC(=O)C(Cc2ccc(OC3OC(CO)C(OC4OC5COC6(CCCCC6)OC5C(O)C4O)C(O)C3O)cc2)NC1=O (stereo not drawn) [Example 203]
1 µg/mL: MIC Streptococcus agalactiae (GC 4564) [1] | MIC Streptococcus agalactiae (GC 4564) ([1]; inoculum 5×10^5 CFU/mL, strain GC 4564) | MIC Staphylococcus aureus (ATCC 29213) [3] | MIC Staphylococcus aureus (GC 4541) [3] | MIC Staphylococcus aureus (GC 4542) [3] | MIC Staphylococcus aureus (GC 4545) [3] | MIC Staphylococcus haemolyticus (GC 4546) [3] | MIC Coagulase Negative Staphylococcus (GC 4548) [3] | MIC Coagulase Negative Staphylococcus (GC 4549) [3] | MIC Coagulase Negative Staphylococcus (GC 6257) [3]
4 µg/mL: MIC Enterococcus faecalis (GC 2242) [2] | MIC Enterococcus faecium (GC 4556) [2] | MIC Enterococcus faecium (GC 4557) [2] | MIC Enterococcus faecalis (GC 2242) ([2]; inoculum 5×10^5 CFU/mL, strain GC 2242) | MIC Enterococcus faecium (GC 4556) ([2]; inoculum 5×10^5 CFU/mL, strain GC 4556) | MIC Enterococcus faecium (GC 4557) ([2]; inoculum 5×10^5 CFU/mL, strain GC 4557) | MIC Staphylococcus aureus (GC 3053) [3]
8 µg/mL: MIC Enterococcus avium (GC 4558) [2] | MIC Enterococcus faecalis (ATCC 29212) [2] | MIC Enterococcus faecalis (GC 2691) [2] | MIC Enterococcus faecalis (GC 3059) [2] | MIC Enterococcus faecalis (GC 4552) [2] | MIC Enterococcus faecalis (GC 4553) [2] | MIC Enterococcus faecalis (GC 4554) [2] | MIC Enterococcus faecalis (GC 6189) [2] | MIC Enterococcus faecium (GC 2243) [2] | MIC Enterococcus faecalis (ATCC 29212) ([2]; inoculum 5×10^5 CFU/mL, strain ATCC 29212) | MIC Enterococcus faecium (GC 2243) ([2]; inoculum 5×10^5 CFU/mL, strain GC 2243) | MIC Enterococcus faecalis (GC 2691) ([2]; inoculum 5×10^5 CFU/mL, strain GC 2691) | MIC Enterococcus faecalis (GC 3059) ([2]; inoculum 5×10^5 CFU/mL, strain GC 3059) | MIC Enterococcus faecalis (GC 4552) ([2]; inoculum 5×10^5 CFU/mL, strain GC 4552) | MIC Enterococcus faecalis (GC 4553) ([2]; inoculum 5×10^5 CFU/mL, strain GC 4553) | MIC Enterococcus faecalis (GC 4554) ([2]; inoculum 5×10^5 CFU/mL, strain GC 4554) | MIC Enterococcus avium (GC 4558) ([2]; inoculum 5×10^5 CFU/mL, strain GC 4558) | MIC Enterococcus faecalis (GC 6189) ([2]; inoculum 5×10^5 CFU/mL, strain GC 6189)
0.25 µg/mL: MIC Streptococcus pneumoniae (GC 4565) [1] | MIC Streptococcus pneumoniae (GC 4565) ([1]; inoculum 5×10^5 CFU/mL, strain GC 4565)
32 µg/mL: MIC Escherichia coli (GC 4559) [4]
0.12 µg/mL: MIC Streptococcus pneumoniae (GC 1894) [1] | MIC Streptococcus pneumoniae (GC 1894) ([1]; inoculum 5×10^5 CFU/mL, strain GC 1894)
0.5 µg/mL: MIC Streptococcus pneumoniae (ATCC 6301) [1] | MIC Streptococcus pyogenes (GC 4563) [1] | MIC Streptococcus pneumoniae (ATCC 6301) ([1]; inoculum 5×10^5 CFU/mL, strain ATCC 6301) | MIC Streptococcus pyogenes (GC 4563) ([1]; inoculum 5×10^5 CFU/mL, strain GC 4563)
2 µg/mL: MIC Staphylococcus aureus (GC 1131) ([3]; inoculum 5×10^5 CFU/mL) | MIC Staphylococcus aureus (GC 1131) [3] | MIC Staphylococcus aureus (GC 3051) [3] | MIC Staphylococcus aureus-SMITH (GC 4543) [3] | MIC Staphylococcus aureus (GC 4544) [3] | MIC Coagulase Negative Staphylococcus (GC 4547) [3] | MIC Coagulase Negative Staphylococcus (GC 4551) [3] | MIC Escherichia coli (GC 4560) [4]
64 µg/mL: MIC Escherichia coli (ATCC 25922) [4]

From patent US6914045B2, “Glycopeptide antibiotics” (Wyeth Holdings Corporation, priority 2001, dated 2005)
